Experimental data reported in patent publication EP1229025A1, “NOVEL QUINAZOLINE DERIVATIVES” (Japan Energy Corporation, priority 1999, dated 2001).

Test system: TNF-α production
Assay: TNF-α production inhibiting test using human PBMC (LPS stimulus, ELISA)
Format: cell-based
Settings: LPS 10 ng/ml, 16 hours, ELISA of culture supernatants
Experimental: Example 145: TNF-α production inhibiting test using human PBMC (peripheral blood mononuclear cells)
Preparation of human PBMC
The blood of a healthy person was taken with a vacuum blood-collecting tube (Nipro neotube) and diluted up to two-fold with physiological saline (Otsuka Pharmaceuticals). To the diluted blood was added 6% dextran T-500 (prepared after dissolution in physiological saline (Otsuka Pharmaceuticals) and sterilization with an autoclave) so as to make a final concentration of 1%. The solution was subjected to tumble mixing and allowed to stand at room temperature for 30 minutes to precipitate the erythrocytes. The supernatant was collected and subjected to centrifugation at 20 °C and at 1,500 rpm for 10 minutes. The cells were suspended in 3 ml of RPMI1640 culture medium (Asahi Technogllas) and overlaid on the solution surface of 3 ml Lymphoprep (NYCOMED). Further, with 1.5 ml of RPMI1640 culture medium being added to the tube which had contained the cell suspension liquid, the cells attached to the tube, which had remained uncollected, were suspended for collection and overlaid on the Lymphoprep previously mentioned. This operation was repeated again. After centrifugation at 20 °C and at 2,000 rpm for 30 minutes, there was collected a fraction of peripheral blood mononuclear cells present in the boundary surface between the Lymphoprep and the RPMI1640 culture medium. The cells were washed twice with 10 ml RPMI1640 culture medium to remove the Lymphoprep and then suspended in a RPMI1640 culture medium added with 10% bovine fetal serum (IRVINE SCIENTIFIC), 100 U/ml penicillin and 100 µg/ml streptomycin (hereinafter referred to as cRPMI1640 culture medium). The number of the cells was measured by Tuerk dying, and the cells, after adjustment to 3 × 10^6 cells/ml, were planted in 100 µl/well on a 96-well plate (FALCON). The cells were cultured at 37 °C under 5%CO2 atmosphere for about 5 hours.
Induction of TNF-α production by LPS stimulus
LPS (E.coli 0111:B4, DIFCO), which had been prepared to 10 mg/ml with water and kept at -20, was diluted to 100 µg/ml with cRPMI1640 culture medium and subjected to sterile filtration. The 100 µg/ml LPS was diluted with cRPMI1640 culture medium to prepare 20 ng/ml LPS. A compound to be tested which was dissolved in DMSO at 1,000-fold concentration was diluted to 500-fold with cRPMI1640 culture medium containing 20 ng/ml LPS and added in 100 µl/well to the cells which had been planted on the previously mentioned 96-well plate (final concentration of LPS: 10 ng/ml). For use as the control group, the solutions were made by diluting DMSO of the same volume as in the test compounds with cRPMI1640 culture medium containing 20 ng/ml LPS, and they were added to the cells. These cells were cultured at 37 °C under 5%CO2 atmosphere for 16 hours.
Determination of TNF-α activity (ELISA method)
To the 96-well plate the mouse anti-human TNF-α antibody (prepared to 2 µg/ml with Coating buffer*^1) was added so as to make 100 µl/well and allowed to stand at 4 °C overnight. After 5-times washing with Wash buffer*^2 (300µl/well), the Blocking buffer*^3 was added to the solutions, which were allowed to stand 37 °C for 2 hours. The culture supernatants were diluted up to 5-fold in the plate (supernatant 20 µl being added to 80 µl of cRPMI1640 culture medium). Simultaneously, for using for a calibration curve, a series of dilution of recombinant human TNF-α was prepared arid allowed to stand 37 °C for 1 hour. After 5-times washing with Wash buffer (300 µl /well), biotinylated rabbit anti-human TNF-α antibody (prepared to 0.25 µg/ml with Antibody diluent*^4) was added so as to make 100 µl /well and allowed to stand at 37 °C for 1 hour. After 5-times washing with Wash buffer (300 µl /well), Streptavidin-Horseradish peroxidase(prepared to 1:4000 with Antibody diluent) was added to make 100 µl /well and allowed to stand at 37 °C for 15 minutes. […]

| Structure (SMILES) | IC50 [nM] |
| --- | --- |
| O=[N+]([O-])c1cc2c(NCc3ccc(Cl)cc3)ncnc2cc1N1CCNCC1 [Example 60, 4-(4-chlorobenzylamino)-6-nitro-7-(piperazin-1-yl)quinazoline] | 600 |
| COc1ccc(CCNc2ncnc3cc(N4CCNCC4)c([N+](=O)[O-])cc23)cc1OC [Example 79, 4-[2-(3,4-dimethoxyphenyl)ethylamino]-6-nitro-7-(piperazin-1-yl)quinazoline] | 2300 |
| O=[N+]([O-])c1cc2c(NCCc3ccc(Cl)cc3)ncnc2cc1N1CCN(CCO)CC1 [Example 5, 4-[2-(4-chlorophenyl)ethylamino]-7-[4-(2-hydroxyethyl)piperazin-1-yl)-6-nitroquinazoline] | 1900 |
| O=[N+]([O-])c1cc2c(NCCc3ccc(F)cc3)ncnc2cc1N1CCNCC1 [Example 37, 4-[2-(4-fluorophenyl)ethylamino]-6-nitro-7-(piperazin-1-yl)quinazoline] | 600 |
| CN1CCN(c2cc3ncnc(NCCc4ccc(Cl)cc4)c3cc2[N+](=O)[O-])CC1 [Example 3, 4-[2-(4-chlorophenyl)ethylamino]-7-(4-methylpiperazin-1-yl)-6-nitroquinazoline] | 1400 |
| COc1cccc(CNc2ncnc3cc(N4CCNCC4)c([N+](=O)[O-])cc23)c1 [Example 66, 4-(3-methoxylbenzylamino)-6-nitro-7-(piperazin-1-yl)quinazoline] | 700 |
| COc1ccc(CCNc2ncnc3cc(N4CCNCC4)c([N+](=O)[O-])cc23)cc1 [Example 78, 4-[2-(4-methoxyphenyl)ethylamino]-6-nitro-7-(piperazin-1-yl)quinazoline] | 1100 |
| Fc1ccc(CNc2ncnc3cc(N4CCNCC4)c(F)cc23)cc1 [Example 113, 6-fluoro-4-(4-fluorobenzylamino)-7-(piperazin-1-yl)quinazoline] | 900 |
| NC1CCN(c2cc3ncnc(NCCc4ccc(Cl)cc4)c3cc2[N+](=O)[O-])CC1 [Example 8, 7-(4-aminopiperidin-1-yl)-4-[2-(4-chlorophenyl)ethylamino]-6-nitroquinazoline] | 1400 |
| O=[N+]([O-])c1cc2c(NCCc3ccc(Cl)cc3)ncnc2cc1N1CCCNCC1 [Example 2, 4-[2-(4-chlorophenyl)ethylamino]-7-(homopiperazin-1-yl)-6-nitroquinazoline] | 2100 |
| Fc1ccc(CCNc2ncnc3cc(N4CCNCC4)c(F)cc23)cc1 [Example 117, 6-fluoro-4-[2-[(4-fluoro)phenyl]ethylamino]-7-(piperazin-1-yl)quinazoline] | 4700 |
| O=[N+]([O-])c1cc2c(NCCc3cccnc3)ncnc2cc1N1CCNCC1 [Example 57, 6-nitro-7-(piperazin-1-yl)-4-[2-(3-pyridyl)ethylamino]quinazoline] | 2300 |
| COc1ccc(CNc2ncnc3cc(N4CCNCC4)c([N+](=O)[O-])cc23)cc1OC [Example 68, 4-(3,4-dimethoxylbenzylamino)-6-nitro-7-(piperazin-1-yl)quinazoline] | 2400 |
| Cc1ccc(CCNc2ncnc3cc(N4CCNCC4)c([N+](=O)[O-])cc23)cc1 [Example 75, 4-[2-(4-methylphenyl)ethylamino]-6-nitro-7-(piperazin-1-yl)quinazoline] | 1900 |
| Fc1cc2c(Nc3ccc4c(c3)OCO4)ncnc2cc1N1CCNCC1 [Example 116, 6-fluoro-4-[(3,4-methylenedioxy)anilino]-7-(piperazin-1-yl)quinazoline] | 3000 |
| O=[N+]([O-])c1cc2c(NCCc3ccccc3)ncnc2cc1N1CCNCC1 [Example 10, 6-nitro-4-[2-(phenyl)ethylamino]-7-(piperazin-1-yl)quinazoline] | 400 |
| O=[N+]([O-])c1cc2c(NCc3ccccc3)ncnc2cc1N1CCNCC1 [Example 18, 4-(benzylamino)-6-nitro-7-(piperazin-1-yl)quinazoline] | 400 |
| O=[N+]([O-])c1cc2c(NCCc3ccccn3)ncnc2cc1N1CCNCC1 [Example 56, 6-nitro-7-(piperazin-1-yl)-4-[2-(2-pyridyl)ethylamino]quinazoline] | 1100 |
| O=[N+]([O-])c1cc2c(NCCc3ccccc3Cl)ncnc2cc1N1CCNCC1 [Example 70, 4-[2-(2-chlorophenyl)ethylamino]-6-nitro-7-(piperazin-1-yl)quinazoline] | 600 |
| O=[N+]([O-])c1cc2c(NCCCc3ccccc3)ncnc2cc1N1CCNCC1 [Example 54, 6-nitro-4-[3-(phenyl)propylamino]-7-(piperazin-1-yl)quinazoline] | 400 |
| O=[N+]([O-])c1cc2c(NCc3cccc4ccccc34)ncnc2cc1N1CCNCC1 [Example 59, 4-[(1-naphthyl)methylamino]-6-nitro-7-(piperazin-1-yl)quinazoline] | 500 |
| COc1cc(CNc2ncnc3cc(N4CCNCC4)c([N+](=O)[O-])cc23)cc(OC)c1OC [Example 69, 6-nitro-7-(piperazin-1-yl)-4-(3,4,5-trimethoxylbenzylamino)quinazoline] | 1800 |
| Cc1ccc(CNc2ncnc3cc(N4CCNCC4)c([N+](=O)[O-])cc23)cc1 [Example 64, 4-(4-methylbenzylamino)-6-nitro-7-(piperazin-1-yl)quinazoline] | 400 |

Further lines, results first:

| IC50 [nM] | Structure (SMILES) |
| --- | --- |
| 1700 | O=[N+]([O-])c1cc2c(Nc3ccc4c(c3)OCO4)ncnc2cc1N1CCNCC1 [Example 124, 4-[(3,4-methylenedioxy)anilino]-6-nitro-7-(piperazin-1-yl)quinazoline] |
| 2100 | O=[N+]([O-])c1cc2c(N3CCN(c4ccccc4)CC3)ncnc2cc1N1CCNCC1 [Example 98, 6-nitro-4-(4-phenylpiperazinyl)-7-piperazinylquinazoline] |
| 500 | O=[N+]([O-])c1cc2c(NCCCc3ccc4c(c3)OCO4)ncnc2cc1N1CCNCC1 [Example 127, 4-[3-[(3,4-methylenedioxy)phenyl]propylamino]-6-nitro-7-(piperazin-1-yl)quinazoline] |
| 1400 | O=[N+]([O-])c1cc2c(N3CCN(c4ccc(Cl)cc4)CC3)ncnc2cc1N1CCNCC1 [Example 101, 4-[(4-chlorophenyl)piperazinyl]-6-nitro-7-piperazinylquinazoline] |
| 600 | O=[N+]([O-])c1cc2c(Nc3ccc(F)cc3)ncnc2cc1N1CCNCC1 [Example 123, 4-[(4-fluoro)anilino]-6-nitro-7-(piperazin-1-yl)quinazoline] |
| 3300 | O=[N+]([O-])c1cc2c(NCCc3ccc4c(c3)OCO4)ncnc2cc1N1CCNCC1 [Example 125] |
| 900 | COc1ccc(N2CCN(c3ncnc4cc(N5CCNCC5)c([N+](=O)[O-])cc34)CC2)cc1 [Example 99, 4-[(4-methoxyphenyl)piperazinyl]-6-nitro-7-piperazinylquinazoline] |
| 7200 | CC(CNc1ncnc2cc(N3CCNCC3)c([N+](=O)[O-])cc12)c1ccccc1 (stereo not shown) [Example 82, 4-(2-methyl-2-phenylethylamino)-6-nitro-7-(piperazin-1-yl)quinazoline] |
| 2500 | Nc1ccc(CCNc2ncnc3cc(N4CCNCC4)c([N+](=O)[O-])cc23)cc1 [Example 81, 4-[2-(4-anilino)ethylamino]-6-nitro-7-(piperazin-1-yl)quinazoline] |
| 600 | Fc1cc2c(NCc3ccc4c(c3)OCO4)ncnc2cc1N1CCNCC1 [Example 114, 6-fluoro-4-[3,4-(methylenedioxy)benzylamino]-7-(piperazin-1-yl)quinazoline] |
| 600 | CN(Cc1ccc2c(c1)OCO2)c1ncnc2cc(N3CCNCC3)c(F)cc12 [Example 122, 6-fluoro-4-[[N-methyl-N'-(3,4-methylenedioxybenzyl)]amino]-7-(piperazin-1-yl)quinazoline] |
